Experimental data as given in ChEMBL document CHEMBL5380799, “Comprehensive Peptide Cyclization Examination Yields Optimized APP Scaffolds with Improved Affinity toward Mint2” (J Med Chem, 2023).
*1 amine or outer side, *2 acyl side, *3 side chain or, on linkers, in order; H or OH if unused. Where a SMILES comes first, the peptide text is derived from it. Bridges are numbered along the chain shown (N, C = ends). Triazole bridges read from a SMILES are 1,4-linked. [ ]: non-standard residue; d: D form. The star is where a group is joined. Perfluorobiphenyl(4,4') = Fc1c(F)c([*:1])c(F)c(F)c1-c1c(F)c(F)c([*:2])c(F)c1F; Pyridine(2,6-diCH2) = c1cc(C[*:1])nc(C[*:2])c1; Lys(N3) = [N-]=[N+]=NCCCC[C@H](N)C(=O)O; NH(CH2CH2O)2(CH2)6Cl = ClCCCCCCOCCOCCN*; Orn(N3) = [N-]=[N+]=NCCC[C@H](N)C(=O)O; pXylylene = c1cc(C[*:2])ccc1C[*:1]; S8 = C=CCCCCCC[C@](C)(N)C(=O)O; Suc = O=C(CCC(=O)[*:2])[*:1]; S5 = C=CCCC[C@](C)(N)C(=O)O; Hpra = C#CCC[C@H](N)C(=O)O; Pra = C#CC[C@H](N)C(=O)O

How the values were obtained:
[1] = Binding affinity to N-terminal hexahistidine-tagged recombinant human Mint2-PARM (364 to 570 residues) in presence of probe [(TAMRA)-NNG-QNGYENPTYKFFEQMQN] by fluorescense polarization assay
Homo sapiens = organism: Homo sapiens; assay: Binding affinity to N-terminal hexahistidine-tagged recombinant human Mint2-PARM (364 to 570 residues) assessed as change in entropy by ITC method
[2] = Drug uptake in human HeLa cells assessed as drug penetration incubated for 4 hrs by CA-TAMRA based CAPA assay; format: ADME, cell-based
[3] = test system: Streptomyces griseus protease; assay: Stability of compound in PBS at pH 7.4 assessed as Streptomyces griseus protease mediated degradation by measuring half life at 100 uM measured after 120 mins by RP UPLC analysis; format: ADME
[4] = Metabolic stability in human plasma assessed as half life at 500 uM incubated for 480 mins by RP UPLC analysis; format: ADME, cell-free
trypsin = assay: Stability of compound in PBS at pH 7.4 assessed as bovine pancreas trypsin mediated degradation by measuring half life at 100 uM measured after 120 mins by RP UPLC analysis; format: ADME, tissue-based, Bos taurus; conditions: cattle
[5] = Binding affinity to N-terminal hexahistidine-tagged recombinant human Mint2-PARM (364 to 570 residues) by ITC method
proteinase K = proteinase K (Engyodontium album, UniProt P06873); assay: Stability of compound in PBS at pH 7.4 assessed as Parengyodontium album proteinase K mediated degradation by measuring half life at 100 uM measured after 120 mins by RP UPLC analysis; format: ADME
proteinase K, sequence (P06873 whole entry): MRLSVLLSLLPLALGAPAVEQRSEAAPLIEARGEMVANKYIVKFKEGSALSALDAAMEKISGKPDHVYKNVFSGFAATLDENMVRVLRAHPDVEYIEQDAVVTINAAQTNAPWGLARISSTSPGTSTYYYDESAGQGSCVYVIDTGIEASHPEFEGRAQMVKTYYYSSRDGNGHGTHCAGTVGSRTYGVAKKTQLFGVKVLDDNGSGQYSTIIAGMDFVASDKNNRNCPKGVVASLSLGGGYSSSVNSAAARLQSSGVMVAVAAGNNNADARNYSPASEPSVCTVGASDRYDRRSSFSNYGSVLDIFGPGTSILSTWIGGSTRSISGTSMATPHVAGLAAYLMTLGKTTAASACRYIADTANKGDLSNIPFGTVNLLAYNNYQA

SH-SY5Y = assay: Cytotoxicity against human SH-SY5Y cells assessed as reduction in cell viability at 100 uM incubated for 48 hrs by MTT assay; format: toxicity, cell-based

## NCCCC[C@H]1NC(=O)[C@@H](Cc2ccc(O)cc2)NC(=O)[C@H](NC(=O)[C@@H]2CCCN2C(=O)[C@@H](CC(N)=O)NC(=O)[C@H](CCC(=O)O)NC(=O)[C@H](Cc2ccc(O)cc2)NC(=O)CNC(=O)[C@H](N)CC(N)=O)CC(=O)NCC[C@H](C(=O)N[C@H](CCC(=O)O)C(=O)O)NC(=O)[C@@H](Cc2ccccc2)NC1=O
[1]
  Ki: 214 µM

## NCCCC[C@@H]1NC(=O)[C@H](Cc2ccc(O)cc2)NC(=O)[C@@H](NC(=O)[C@H]2CCCN2C(=O)[C@H](CC(N)=O)NC(=O)[C@@H](CCC(=O)O)NC(=O)[C@@H](Cc2ccc(O)cc2)NC(=O)CNC(=O)[C@@H](N)CC(N)=O)CCSCc2ccc(cc2)CSCC[C@@H](C(=O)N[C@@H](CCC(=O)O)C(=O)O)NC(=O)[C@H](Cc2ccccc2)NC1=O
Homo sapiens
  TdeltaS: -2.03 kcal/mol

## C[C@@]1(C(=O)N[C@@H](CCC(=O)O)C(=O)O)CCC/C=C\CCCCCC[C@](C)(NC(=O)[C@@H]2CCCN2C(=O)[C@H](CC(N)=O)NC(=O)[C@H](CCC(=O)O)NC(=O)[C@H](Cc2ccc(O)cc2)NC(=O)CNC(=O)[C@@H](N)CC(N)=O)C(=O)N[C@@H](Cc2ccc(O)cc2)C(=O)N[C@@H](CCCCN)C(=O)N[C@@H](Cc2ccccc2)C(=O)N1 (H-NGYENP[S8]YKF[S5]E-OH; staple (Z) 7-11)
[1]
  Ki: 2.3 µM

## C[C@@]1(C(=O)N[C@@H](CCC(=O)O)C(=O)O)CCCCCC/C=C/CCC[C@](C)(NC(=O)[C@@H]2CCCN2C(=O)[C@H](CC(N)=O)NC(=O)[C@H](CCC(=O)O)NC(=O)[C@H](Cc2ccc(O)cc2)NC(=O)CNC(=O)[C@@H](N)CC(N)=O)C(=O)N[C@@H](Cc2ccc(O)cc2)C(=O)N[C@@H](CCCCN)C(=O)N[C@@H](Cc2ccccc2)C(=O)N1 (H-NGYENP[S5]YKF[S8]E-OH; staple (E) 7-11)
[1]
  Ki: 0.8 µM

## NCCCC[C@@H]1NC(=O)[C@H](Cc2ccc(O)cc2)NC(=O)[C@@H](NC(=O)[C@@H]2CCCN2C(=O)[C@H](CC(N)=O)NC(=O)[C@H](CCC(=O)O)NC(=O)[C@H](Cc2ccc(O)cc2)NC(=O)CNC(=O)[C@@H](N)CC(N)=O)CCSCc2ccc(cc2)CSCC[C@@H](C(=O)N[C@@H](CCC(=O)O)C(=O)O)NC(=O)[C@H](Cc2ccccc2)NC1=O
[1]
  Ki: 0.3 µM
[2]
  EC50: 14.5 µM
[3]
  half-life at 100 µM: > 2 h
[4]
  half-life at 500 µM: 1.5 h
trypsin
  half-life at 100 µM: > 2 h
[5]
  Kd: 1.04 µM
Proteinase K
  half-life at 100 µM: > 2 h

## H-NGYENPTYKFFE-OH
[1]
  Ki: 4 µM
SH-SY5Y
  Activity: 20%
trypsin
  half-life at 100 µM: 0.43 h

## NCCCC[C@@H]1NC(=O)[C@H](Cc2ccc(O)cc2)NC(=O)[C@@H](NC(=O)[C@@H]2CCCN2C(=O)[C@H](CC(N)=O)NC(=O)[C@H](CCC(=O)O)NC(=O)[C@H](Cc2ccc(O)cc2)NC(=O)CNC(=O)[C@@H](N)CC(N)=O)CCCn2cc(nn2)CC[C@@H](C(=O)N[C@@H](CCC(=O)O)C(=O)O)NC(=O)[C@H](Cc2ccccc2)NC1=O (H-NGYENP[Orn(N3)]YKF[Hpra]E-OH; triazole 7-11)
[1]
  Ki: 64.6 µM

## NCCCC[C@@H]1NC(=O)[C@H](Cc2ccc(O)cc2)NC(=O)[C@@H](NC(=O)[C@@H]2CCCN2C(=O)[C@H](CC(N)=O)NC(=O)[C@H](CCC(=O)O)NC(=O)[C@H](Cc2ccc(O)cc2)NC(=O)CNC(=O)[C@@H](N)CC(N)=O)CSCc2ccc(cc2)CSC[C@@H](C(=O)N[C@@H](CCC(=O)O)C(=O)O)NC(=O)[C@H](Cc2ccccc2)NC1=O (H-NGYENPCYKFCE-OH; linker 7-11 via pXylylene)
[1]
  Ki: 0.4 µM

## NCCCC[C@@H]1NC(=O)[C@H](Cc2ccc(O)cc2)NC(=O)[C@@H](NC(=O)[C@@H]2CCCN2C(=O)[C@H](CC(N)=O)NC(=O)[C@H](CCC(=O)O)NC(=O)[C@H](Cc2ccc(O)cc2)NC(=O)CNC(=O)[C@H](CC(N)=O)NC(=O)CCC(=O)NCCOCCOCCCCCCCl)CCSCc2ccc(cc2)CSCC[C@@H](C(=O)N[C@H](CCC(=O)O)C(=O)O)NC(=O)[C@H](Cc2ccccc2)NC1=O
[2]
  EC50: 14.5 µM

## NCCCC[C@@H]1NC(=O)[C@H](Cc2ccc(O)cc2)NC(=O)[C@@H](NC(=O)[C@@H]2CCCN2C(=O)[C@H](CC(N)=O)NC(=O)[C@H](CCC(=O)O)NC(=O)[C@H](Cc2ccc(O)cc2)NC(=O)CNC(=O)[C@@H](N)CC(N)=O)CCCCNC(=O)C[C@@H](C(=O)N[C@@H](CCC(=O)O)C(=O)O)NC(=O)[C@H](Cc2ccccc2)NC1=O (H-NGYENPKYKFDE-OH; lactam 7-11)
[1]
  Ki: 1 µM
[2]
  EC50: 77.9 µM
[3]
  half-life at 100 µM: 0.45 h
[4]
  half-life at 500 µM: 1.18 h
trypsin
  half-life at 100 µM: > 2 h
[5]
  Kd: 5.77 µM
Proteinase K
  half-life at 100 µM: > 2 h

## NCCCC[C@@H]1NC(=O)[C@H](Cc2ccc(O)cc2)NC(=O)[C@@H](NC(=O)[C@@H]2CCCN2C(=O)[C@H](CC(N)=O)NC(=O)[C@H](CCC(=O)O)NC(=O)[C@H](Cc2ccc(O)cc2)NC(=O)CNC(=O)[C@@H](N)CC(N)=O)CSCc2cccc(n2)CSC[C@@H](C(=O)N[C@@H](CCC(=O)O)C(=O)O)NC(=O)[C@H](Cc2ccccc2)NC1=O (H-NGYENPCYKFCE-OH; linker 7-11 via Pyridine(2,6-diCH2))
[1]
  Ki: 6.5 µM

## C[C@@H](O)[C@H](NC(=O)[C@@H]1CCCN1C(=O)[C@H](CC(N)=O)NC(=O)[C@H](CCC(=O)O)NC(=O)[C@H](Cc1ccc(O)cc1)NC(=O)CNC(=O)[C@H](CC(N)=O)NC(=O)CCC(=O)NCCOCCOCCCCCCCl)C(=O)N[C@@H](Cc1ccc(O)cc1)C(=O)N[C@@H](CCCCN)C(=O)N[C@@H](Cc1ccccc1)C(=O)N[C@@H](Cc1ccccc1)C(=O)N[C@@H](CCC(=O)O)C(=O)O ({NH(CH2CH2O)2(CH2)6Cl-Suc}-NGYENPTYKFFE-OH)
[2]
  EC50: 42 µM

## C[C@@]1(C(=O)N[C@H](CCC(=O)O)C(=O)O)CCC/C=C\CCC[C@](C)(NC(=O)[C@@H]2CCCN2C(=O)[C@H](CC(N)=O)NC(=O)[C@H](CCC(=O)O)NC(=O)[C@H](Cc2ccc(O)cc2)NC(=O)CNC(=O)[C@H](CC(N)=O)NC(=O)CCC(=O)NCCOCCOCCCCCCCl)C(=O)N[C@@H](Cc2ccc(O)cc2)C(=O)N[C@@H](CCCCN)C(=O)N[C@@H](Cc2ccccc2)C(=O)N1
[2]
  EC50: 77.9 µM

## NCCCC[C@H](NC(=O)[C@H](Cc1ccc(O)cc1)NC(=O)[C@H](CS)NC(=O)[C@@H]1CCCN1C(=O)[C@H](CC(N)=O)NC(=O)[C@H](CCC(=O)O)NC(=O)[C@H](Cc1ccc(O)cc1)NC(=O)CNC(=O)[C@@H](N)CC(N)=O)C(=O)N[C@@H](Cc1ccccc1)C(=O)N[C@@H](CS)C(=O)N[C@@H](CCC(=O)O)C(=O)O (H-NGYENPCYKFCE-OH)
[1]
  Ki: 21.4 µM

## NCCCC[C@@H]1NC(=O)[C@H](Cc2ccc(O)cc2)NC(=O)[C@@H](NC(=O)[C@@H]2CCCN2C(=O)[C@H](CC(N)=O)NC(=O)[C@H](CCC(=O)O)NC(=O)[C@H](Cc2ccc(O)cc2)NC(=O)CNC(=O)[C@@H](N)CC(N)=O)CCCCn2cc(nn2)C[C@@H](C(=O)N[C@@H](CCC(=O)O)C(=O)O)NC(=O)[C@H](Cc2ccccc2)NC1=O (H-NGYENP[Lys(N3)]YKF[Pra]E-OH; triazole 7-11)
[1]
  Ki: 1.2 µM
[2]
  EC50: 42.9 µM
[3]
  half-life at 100 µM: 0.333 h
[4]
  half-life at 500 µM: 0.675 h
trypsin
  half-life at 100 µM: > 2 h
[5]
  Kd: 1 µM
Proteinase K
  half-life at 100 µM: 0.467 h

## NCCCC[C@@H]1NC(=O)[C@H](Cc2ccc(O)cc2)NC(=O)[C@@H](NC(=O)[C@@H]2CCCN2C(=O)[C@H](CC(N)=O)NC(=O)[C@H](CCC(=O)O)NC(=O)[C@H](Cc2ccc(O)cc2)NC(=O)CNC(=O)[C@@H](N)CC(N)=O)CSc2c(F)c(F)c(c(F)c2F)-c2c(F)c(F)c(c(F)c2F)SC[C@@H](C(=O)N[C@@H](CCC(=O)O)C(=O)O)NC(=O)[C@H](Cc2ccccc2)NC1=O (H-NGYENPCYKFCE-OH; linker 7-11 via Perfluorobiphenyl(4,4'))
[1]
  Ki: 0.9 µM

## C[C@@]1(C(=O)N[C@@H](CCC(=O)O)C(=O)O)CCC/C=C\CCC[C@](C)(NC(=O)[C@@H]2CCCN2C(=O)[C@H](CC(N)=O)NC(=O)[C@H](CCC(=O)O)NC(=O)[C@@H](Cc2ccc(O)cc2)NC(=O)CNC(=O)[C@H](N)CC(N)=O)C(=O)N[C@@H](Cc2ccc(O)cc2)C(=O)N[C@@H](CCCCN)C(=O)N[C@@H](Cc2ccccc2)C(=O)N1
[1]
  Ki: 0.5 µM
[2]
  EC50: 33.3 µM
[3]
  half-life at 100 µM: > 2 h
[4]
  half-life at 500 µM: 2.02 h
Homo sapiens
  TdeltaS: -1.44 kcal/mol
trypsin
  half-life at 100 µM: > 2 h
[5]
  Kd: 0.24 µM
Proteinase K
  half-life at 100 µM: > 2 h
